The NIST ThermoML archive (doi:10.1021/je060353z)
Several values for one entry are separate records, joined by “and”; a condition that tells them apart may be missing. Equal entries are not always repeated.

Tests used:
[1] = 101 kPa, Liquid
[2] = xn = mol fraction of the nth substance listed; settings: 101 kPa, Liquid

Clc1ccccc1 [chlorobenzene]
[1]
Settings | mass density | speed of sound [m/s] | viscosity [mPa·s]
298.15 K | 1100.97 kg/m3 and 1100.67 kg/m3 | 1268 | 0.757
303.15 K | 1095.1 kg/m3 | 1249.4 | 0.714
308.15 K | 1089.08 kg/m3 | 1230.9 | 0.677
313.15 K | 1083.66 kg/m3 | 1212.6 | 0.617

Clc1ccccc1 [chlorobenzene] + CCCCCCO
[2]
Settings | mass density [kg/m3] | speed of sound [m/s] | viscosity [mPa·s]
298.15 K, x1 = 0.1144 | 842.629 | 1297.7 | 3.576
298.15 K, x1 = 0.2338 | 872.274 | 1289.8 | 2.746
298.15 K, x1 = 0.3573 | 904.193 | 1281.6 | 2.107
298.15 K, x1 = 0.4628 | 932.67 | 1274.8 | 1.699
298.15 K, x1 = 0.5568 | 959.077 | 1269.2 | 1.417
298.15 K, x1 = 0.6542 | 987.534 | 1264.3 | 1.184
298.15 K, x1 = 0.7457 | 1015.51 | 1260.9 | 1.008
298.15 K, x1 = 0.8353 | 1044.18 | 1259.3 | 0.873
298.15 K, x1 = 0.9171 | 1071.62 | 1260.9 | 0.788
298.15 K, x1 = 1 | 1100.97 | 1268 | 0.757
303.15 K, x1 = 0.1144 | 839.289 | 1280.6 | 3.096
303.15 K, x1 = 0.2338 | 868.705 | 1272.5 | 2.414
303.15 K, x1 = 0.3573 | 900.355 | 1264 | 1.87
303.15 K, x1 = 0.4628 | 928.591 | 1257.1 | 1.515
303.15 K, x1 = 0.5568 | 954.767 | 1251.6 | 1.274
303.15 K, x1 = 0.6542 | 982.986 | 1246.6 | 1.079
303.15 K, x1 = 0.7457 | 1010.71 | 1243.1 | 0.935
303.15 K, x1 = 0.8353 | 1039.12 | 1241.5 | 0.824
303.15 K, x1 = 0.9171 | 1066.27 | 1243.2 | 0.752
303.15 K, x1 = 1 | 1095.1 | 1249.4 | 0.714
308.15 K, x1 = 0.1144 | 835.421 | 1263.6 | 2.695
308.15 K, x1 = 0.2338 | 864.604 | 1255.4 | 2.123
308.15 K, x1 = 0.3573 | 895.988 | 1246.7 | 1.665
308.15 K, x1 = 0.4628 | 923.985 | 1239.7 | 1.369
308.15 K, x1 = 0.5568 | 949.942 | 1233.9 | 1.165
308.15 K, x1 = 0.6542 | 977.948 | 1228.9 | 0.997
308.15 K, x1 = 0.7457 | 1005.42 | 1225.4 | 0.87
308.15 K, x1 = 0.8353 | 1033.55 | 1224.3 | 0.772
308.15 K, x1 = 0.9171 | 1060.41 | 1225.8 | 0.711
308.15 K, x1 = 1 | 1089.08 | 1230.9 | 0.677
313.15 K, x1 = 0.1144 | 831.574 | 1246.5 | 2.35
313.15 K, x1 = 0.2338 | 860.561 | 1238.5 | 1.865
313.15 K, x1 = 0.3573 | 891.747 | 1229.8 | 1.478
313.15 K, x1 = 0.4628 | 919.571 | 1222.9 | 1.223
313.15 K, x1 = 0.5568 | 945.388 | 1216.7 | 1.044
313.15 K, x1 = 0.6542 | 973.227 | 1211.6 | 0.896
313.15 K, x1 = 0.7457 | 1000.53 | 1207.9 | 0.78
313.15 K, x1 = 0.8353 | 1028.46 | 1206.6 | 0.692
313.15 K, x1 = 0.9171 | 1055.09 | 1208.2 | 0.637
313.15 K, x1 = 1 | 1083.66 | 1212.6 | 0.617
